From patent US20260042764A1, “COMPOSITIONS AND METHODS FOR INHIBITION OF KRAS” (TheRas, Inc., priority 2022, published 2026)

Legend:
[1] = molecular target: T1, Avi-KRAS G12V (1-169) GppNHp/RAF1 RBD-3xFLAG (52-151) (Homo sapiens, UniProt P01116, G12V); assay: Raf1-KRAS G12V-GppNHP disruption HTRF assay (Biological Example 1); type: binding
T1 construct: Avi-KRAS G12V (1-169)
Procedure, shortened: (§1)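 HTRF PPI disruption; buffer 50 mM Tris pH 7.5, 100 mM NaCl, 5 mM MgCl2, 0.1% BSA, 0.01% Tween, 10% DMSO. Protein mix 1 h RT shaking, reagent mix 1 h RT shaking. Data as % activity vs DMSO (100%).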

[2] = test system: GP2d cells (KRAS G12D); assay: Cell-based pERK HTRF assay in GP2d cell (Biological Example 2); details: GP2d, GP2d (KRAS G12D) cells, pERK HTRF
Procedure, shortened: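 Phospho-ERK in lysed cells was detected by HTRF using Eu cryptate and d2 antibodies, read between 4 and 24 h at room temperature. Prior to lysis, KRAS G12D GP2d cells, seeded the day before in DMEM with 10% FBS, were exposed to compounds for 60 min. Compounds were tested as 9-point half-log curves from 1 μM or 100 nM top, with 0.25% DMSO.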

[3] = test system: SW620 cells (KRAS G12V); assay: Cell-based pERK HTRF assay in SW620 cell (Biological Example 4); details: Homo sapiens, SW-620, SW620 (KRAS G12V) cells, pERK HTRF
Procedure, shortened: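 In SW620 cells grown in RPMI with 10% FBS, a 4 h compound treatment (0.25% DMSO, 9-point curve from 1 μM) preceded lysis. Phospho-ERK levels were then read by time-resolved FRET at 615 nm emission.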

[4] = molecular target: T2, Avi-KRAS G12R (1-169) GppNHp/RAF1 RBD-3xFLAG (52-151) (Homo sapiens, UniProt P01116, G12R); assay: Raf1-KRAS G12R-GppNHP disruption HTRF assay (Biological Example 1); type: binding
T2 construct: Avi-KRAS G12R (1-169)
Procedure, shortened: as §1

[5] = molecular target: T3, Avi-KRAS WT (1-169) GppNHp/RAF1 RBD-3xFLAG (52-151) (Homo sapiens, UniProt P01116); assay: Raf1-KRAS WT-GppNHP disruption HTRF assay (Biological Example 1); type: binding
T3 construct: Avi-KRAS WT (1-169)
Procedure, shortened: as §1

[6] = molecular target: T4, Avi-KRAS G12D (1-169) GppNHp/RAF1 RBD-3xFLAG (52-151) (Homo sapiens, UniProt P01116, G12D); assay: Raf1-KRAS G12D-GppNHP disruption HTRF assay (Biological Example 1); type: binding
T4 construct: Avi-KRAS G12D (1-169)
Procedure, shortened: as §1

[7] = KRAS G12V, GppNHp-loaded, Table 11
[8] = KRAS G12R, GppNHp-loaded, Table 11
[9] = KRAS WT, GppNHp-loaded, Table 11
[10] = KRAS G12D, GppNHp-loaded, Table 11
[11] = KRAS G12V, GppNHp-loaded, class symbols
[12] = KRAS G12R, GppNHp-loaded, class symbols
[13] = KRAS WT, GppNHp-loaded, class symbols
[14] = KRAS G12D, GppNHp-loaded, class symbols

T4 sequence (P01116 1-169 isoform P01116-2 G12D): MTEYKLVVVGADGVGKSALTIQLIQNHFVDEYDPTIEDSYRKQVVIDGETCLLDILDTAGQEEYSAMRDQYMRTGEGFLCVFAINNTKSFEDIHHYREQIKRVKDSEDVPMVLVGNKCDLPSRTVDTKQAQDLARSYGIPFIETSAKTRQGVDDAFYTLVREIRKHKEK
T2 sequence (P01116 1-169 isoform P01116-2 G12R): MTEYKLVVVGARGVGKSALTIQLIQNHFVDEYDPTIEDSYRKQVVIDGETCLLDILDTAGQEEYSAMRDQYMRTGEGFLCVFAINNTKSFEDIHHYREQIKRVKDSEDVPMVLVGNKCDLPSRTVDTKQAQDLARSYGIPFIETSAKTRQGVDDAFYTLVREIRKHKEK
T1 sequence (P01116 1-169 isoform P01116-2 G12V): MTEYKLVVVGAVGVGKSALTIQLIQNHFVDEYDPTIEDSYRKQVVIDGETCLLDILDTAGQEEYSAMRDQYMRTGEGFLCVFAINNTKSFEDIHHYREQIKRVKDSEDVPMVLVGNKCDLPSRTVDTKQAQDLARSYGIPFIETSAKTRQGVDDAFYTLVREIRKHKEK
T3 sequence (P01116 1-169 isoform P01116-2): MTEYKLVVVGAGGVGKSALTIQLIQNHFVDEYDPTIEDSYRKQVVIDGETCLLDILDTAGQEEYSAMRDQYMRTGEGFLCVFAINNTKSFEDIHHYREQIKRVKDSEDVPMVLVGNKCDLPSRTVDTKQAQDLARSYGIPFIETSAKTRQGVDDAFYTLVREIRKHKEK

Compound | IC50 [1, 7] [nM] | IC50 [2] [nM] | IC50 [3] [nM] | IC50 [4, 8] [nM] | IC50 [5, 9] [nM] | IC50 [6, 10] [nM] | IC50 [1, 11] [nM] | IC50 ([2]; class symbols) [nM] | IC50 ([3]; class symbols) [nM] | IC50 [4, 12] [nM] | IC50 [5, 13] [nM] | IC50 [6, 14] [nM] | IC50 ([1]; KRAS G12V-GppNHp/RAF1 RBD HTRF) [nM] | IC50 ([4]; KRAS G12R-GppNHp/RAF1 RBD HTRF) [nM] | IC50 ([5]; KRAS WT-GppNHp/RAF1 RBD HTRF) [nM] | IC50 ([6]; KRAS G12D-GppNHp/RAF1 RBD HTRF) [nM]
N#Cc1c(N)sc2c(F)ccc(-c3c(C(F)(F)F)cc4c(N5CCC5)nc(OC[C@@]56CCCN5C[C@H](F)C6)nc4c3F)c12 [Compound 212] | 100 to 1000 | < 100 | < 100 | 100 to 1000 | 100 to 1000 | 100 to 1000 | – | – | – | – | – | – | – | – | – | –
CCN(c1nc(OC[C@@]23CCCN2C[C@H](F)C3)nc2c(F)c(-c3ccc(F)c4sc(N)c(C#N)c34)c(C(F)(F)F)cc12)[C@H]1CCN(C(=O)O[C@H]2CCOC2)[C@@H]1C (atropisomer, axis not shown) [Compound 810] | – | – | – | – | – | – | < 100 | < 100 | < 100 | < 100 | < 100 | < 100 | – | – | – | –
N#Cc1c(N)sc2c(F)ccc(-c3c(C(F)(F)F)cc4c(N5CC6CC(O)C(C6)C5)nc(OC[C@@]56CCCN5C[C@H](F)C6)nc4c3F)c12 (stereo partly drawn) [Compound 306] | – | 100 to 1000 | 100 to 1000 | – | – | – | – | – | – | – | – | – | > 10000 | 1000 to 10000 | 1000 to 10000 | 1000 to 10000
CN(c1nc(OC[C@@]23CCCN2C[C@H](F)C3)nc2c(F)c(-c3ccc(F)c4sc(N)c(C#N)c34)c(C(F)(F)F)cc12)[C@H]1CC[C@@H](O)C1 [Compound 309] | – | < 100 | < 100 | – | – | – | – | – | – | – | – | – | 100 to 1000 | 100 to 1000 | 100 to 1000 | 100 to 1000
N#Cc1c(N)sc2c(F)ccc(-c3c(C(F)(F)F)cc4c(N5CC(F)C5)nc(OC[C@@]56CCCN5C[C@H](F)C6)nc4c3F)c12 [Compound 222] | 100 to 1000 | < 100 | < 100 | 100 to 1000 | 100 to 1000 | 100 to 1000 | – | – | – | – | – | – | – | – | – | –
N#Cc1c(N)sc2c(F)ccc(-c3c(C(F)(F)F)cc4c(N5C[C@H]6C[C@@H]5CO6)nc(OC[C@]56C[C@@H](F)CN5CC5(CC5)C6)nc4c3F)c12 [Compound 595] | – | – | – | – | – | – | 1000 to 10000 | < 100 | < 100 | 1000 to 10000 | 1000 to 10000 | 1000 to 10000 | – | – | – | –
N#Cc1c(N)sc2c(F)ccc(-c3c(C(F)(F)F)cc4c(N5C[C@@H]6C[C@H]5CO6)nc(OC[C@@]56CCCN5C[C@H](F)C6)nc4c3F)c12 [Compound 259] | 1000 to 10000 | < 100 | < 100 | 100 to 1000 | 100 to 1000 | 100 to 1000 | – | – | – | – | – | – | – | – | – | –
C[C@H]1CCN1c1nc(OC[C@@]23CCCN2C[C@H](F)C3)nc2c(F)c(-c3ccc(F)c4sc(N)c(C#N)c34)c(C(F)(F)F)cc12 [Compound 235] | 100 to 1000 | < 100 | < 100 | 100 to 1000 | 100 to 1000 | 100 to 1000 | – | – | – | – | – | – | – | – | – | –
N#Cc1c(N)sc2c(F)ccc(-c3c(C(F)(F)F)cc4c(N5CCn6nc(C(=O)N7CC(O)C7)cc6C5)nc(OC[C@@]56CCCN5C[C@H](F)C6)nc4c3F)c12 [Compound 502] | – | < 100 | 100 to 1000 | – | – | – | – | – | – | – | – | – | 100 to 1000 | 100 to 1000 | 100 to 1000 | 100 to 1000
CN(C)C(=O)c1cc2n(n1)CCN(c1nc(OC[C@@]34CCCN3C[C@H](F)C4)nc3c(F)c(-c4ccc(F)c5sc(N)c(C#N)c45)c(C(F)(F)F)cc13)CC2 [Compound 426] | – | 100 to 1000 | 100 to 1000 | – | – | – | – | – | – | – | – | – | 1000 to 10000 | 1000 to 10000 | 1000 to 10000 | 1000 to 10000
C/C=C/C(=O)N1CC[C@@H](N(C)c2nc(OC[C@@]34CCCN3C[C@H](F)C4)nc3c(F)c(-c4ccc(F)c5sc(N)c(C#N)c45)c(C(F)(F)F)cc23)[C@H]1C [Compound 670] | – | – | – | – | – | – | 100 to 1000 | < 100 | < 100 | 100 to 1000 | 100 to 1000 | 100 to 1000 | – | – | – | –
N#Cc1c(N)sc2c(F)ccc(-c3c(C(F)(F)F)cc4c(N5CCC[C@H](CO)C5)nc(OC[C@@]56CCCN5C[C@H](F)C6)nc4c3F)c12 [Compound 310] | – | < 100 | 100 to 1000 | – | – | – | – | – | – | – | – | – | 1000 to 10000 | 100 to 1000 | 100 to 1000 | 100 to 1000
[2H]C([2H])([2H])C([2H])(C(=O)N1CC[C@H](N(CC)c2nc(OC[C@@]34CCCN3C[C@H](F)C4)nc3c(F)c(-c4ccc(F)c5sc(N)c(C#N)c45)c(C(F)(F)F)cc23)C1)C([2H])([2H])[2H] (atropisomer, axis not shown) [Compound 707] | – | – | – | – | – | – | < 100 | < 100 | < 100 | < 100 | < 100 | < 100 | – | – | – | –
CCC(=O)N1C[C@@H](N(CC)c2nc(OC[C@@]34CCCN3C[C@H](F)C4)nc3c(F)c(-c4ccc(F)c5sc(N)c(C#N)c45)c(C(F)(F)F)cc23)C[C@@H]1C [Compound 464] | – | < 100 | < 100 | – | – | – | – | – | – | – | – | – | < 100 | < 100 | 100 to 1000 | < 100
CCC(=O)N1CC[C@H]2[C@@H]1CN2c1nc(OC[C@@]23CCCN2C[C@H](F)C3)nc2c(F)c(-c3ccc(F)c4sc(N)c(C#N)c34)c(C(F)(F)F)cc12 (atropisomer, axis not shown) [Compound 642] | – | – | – | – | – | – | 1000 to 10000 | < 100 | 100 to 1000 | 1000 to 10000 | 1000 to 10000 | 1000 to 10000 | – | – | – | –
CCN(c1nc(OC[C@@]23CCCN2C[C@H](F)C3)nc2c(F)c(-c3ccc(F)c4sc(N)c(C#N)c34)c(C(F)(F)F)cc12)[C@H]1CCN(C(=O)C2(C#N)CC2)C1 [Compound 560] | – | < 100 | < 100 | – | – | – | – | – | – | – | – | – | < 100 | < 100 | < 100 | < 100
CCN(c1nc(OC[C@@]23CCCN2C[C@H](F)C3)nc2c(F)c(-c3ccc(F)c4sc(N)c(C#N)c34)c(C(F)(F)F)cc12)[C@H]1CCN(C(=O)c2cnsc2)C1 (atropisomer, axis not shown) [Compound 729] | – | – | – | – | – | – | < 100 | < 100 | < 100 | < 100 | < 100 | < 100 | – | – | – | –
C=C(F)C(=O)N1CC[C@@H](N(C)c2nc(OC[C@@]34CCCN3C[C@H](F)C4)nc3c(F)c(-c4ccc(F)c5sc(N)c(C#N)c45)c(C(F)(F)F)cc23)[C@H]1C [Compound 669] | – | – | – | – | – | – | 100 to 1000 | < 100 | < 100 | 100 to 1000 | 100 to 1000 | 100 to 1000 | – | – | – | –
